This is an account of results in PMC5218480 (PLoS ONE, 2017).

SMILES strings stand for the structures.

The test system of the assay is MV-4-11 cells. The experiment in a line: Gene expression microarray analysis (Affymetrix PrimeView) and GSEA. On the set-up: RFU PODN (11730768_x_at) / Fold change /veh PODN (11730768_x_at) / RFU LINC00158 (11744669_a_at) / Fold change /veh LINC00158 (11744669_a_at) / RFU DUSP10 (11751237_a_at) / Fold change /veh DUSP10 (11751237_a_at) / RFU ID3 (11757404_x_at) / Fold change /veh ID3 (11757404_x_at) / RFU PLEKHG5 (11737974_s_at) / Fold change /veh PLEKHG5 (11737974_s_at) / RFU LRRC4B (11730491_at) / Fold change /veh LRRC4B (11730491_at) / RFU GIMAP4 (11747438_a_at) / Fold change /veh GIMAP4 (11747438_a_at) / RFU KRT8 (11758183_x_at) / Fold change /veh KRT8 (11758183_x_at) / RFU CNN1 (11734310_a_at) / Fold change /veh CNN1 (11734310_a_at) / RFU VPS37D (11726825_at) / Fold change /veh VPS37D (11726825_at) / RFU C10orf10 (11716522_x_at) / Fold change /veh C10orf10 (11716522_x_at) / RFU KIR2DL2 /// KIR2DL4 /// KIR2DL5A /// KIR2DL5B /// KIR2DS1 /// KIR2DS2 /// KIR2DS3 /// KIR2DS4 /// KIR3DL3 /// KIR3DL3 /// KIR3DS1 (11738374_at) / Fold change /veh KIR2DL2 /// KIR2DL4 /// KIR2DL5A /// KIR2DL5B /// KIR2DS1 /// KIR2DS2 /// KIR2DS3 /// KIR2DS4 /// KIR3DL3 /// KIR3DL3 /// KIR3DS1 (11738374_at) / RFU C1QL1 (11718748_at) / Fold change /veh C1QL1 (11718748_at) / RFU TMPRSS4 (11747572_a_at) / Fold change /veh TMPRSS4 (11747572_a_at) / RFU HAMP (11756126_x_at) / Fold change /veh HAMP (11756126_x_at) / RFU RNFT2 (11725882_a_at) / Fold change /veh RNFT2 (11725882_a_at) / RFU NR4A2 (11747474_a_at) / Fold change /veh NR4A2 (11747474_a_at) / RFU ABCC12 (11746883_a_at) / Fold change /veh ABCC12 (11746883_a_at) / RFU TMEM136 (11760407_x_at) / Fold change /veh TMEM136 (11760407_x_at) / RFU CLDN22 /// WWC2 (11732394_at) / Fold change /veh CLDN22 /// WWC2 (11732394_at) / RFU HLA-DPB1 (11760878_x_at) / Fold change /veh HLA-DPB1 (11760878_x_at) / RFU SPINT1 (11716480_a_at) / Fold change /veh SPINT1 (11716480_a_at) / RFU GAP43 (11754022_s_at) / Fold change /veh GAP43 (11754022_s_at) / RFU A4GNT (11735810_at) / Fold change /veh A4GNT (11735810_at) / RFU PRB3 (11715151_x_at) / Fold change /veh PRB3 (11715151_x_at) / RFU TUBB4B (11761932_at) / Fold change /veh TUBB4B (11761932_at) / RFU CAPN14 (11732068_a_at) / Fold change /veh CAPN14 (11732068_a_at) / RFU TMCC2 (11721928_a_at) / Fold change /veh TMCC2 (11721928_a_at) / RFU IRGQ (11745062_a_at) / Fold change /veh IRGQ (11745062_a_at) / RFU FAM174B (11720279_a_at) / Fold change /veh FAM174B (11720279_a_at) / RFU TMPRSS4 (11748680_a_at) / Fold change /veh TMPRSS4 (11748680_a_at) / RFU FAM212B (11763350_a_at) / Fold change /veh FAM212B (11763350_a_at) / RFU PLEKHG5 (11743358_a_at) / Fold change /veh PLEKHG5 (11743358_a_at) / RFU ZSCAN30 (11745921_a_at) / Fold change /veh ZSCAN30 (11745921_a_at) / RFU CMKLR1 (11741424_a_at) / Fold change /veh CMKLR1 (11741424_a_at) / RFU LOC101060620 /// MAPK8IP1 (11723275_at) / Fold change /veh LOC101060620 /// MAPK8IP1 (11723275_at) / RFU SPTSSB (11747773_x_at) / Fold change /veh SPTSSB (11747773_x_at) / RFU PRSS12 (11739890_at) / Fold change /veh PRSS12 (11739890_at) / RFU BIN1 (11741810_x_at) / Fold change /veh BIN1 (11741810_x_at) / RFU WNT11 (11732464_a_at) / Fold change /veh WNT11 (11732464_a_at) / RFU C10orf10 (11716521_a_at) / Fold change /veh C10orf10 (11716521_a_at) / RFU C5orf56 (11738089_at) / Fold change /veh C5orf56 (11738089_at) / RFU CYB561 (11721691_x_at) / Fold change /veh CYB561 (11721691_x_at) / RFU ANKRD19P (11752326_a_at) / Fold change /veh ANKRD19P (11752326_a_at) / RFU OR2T12 /// OR2T33 /// OR2T8 (11738714_s_at) / Fold change /veh OR2T12 /// OR2T33 /// OR2T8 (11738714_s_at) / RFU VCAN (11748164_a_at) / Fold change /veh VCAN (11748164_a_at) / RFU JSRP1 (11732532_at) / Fold change /veh JSRP1 (11732532_at) / RFU KRTAP10-11 (11738290_x_at) / Fold change /veh KRTAP10-11 (11738290_x_at) / RFU MYO3A (11730013_a_at) / Fold change /veh MYO3A (11730013_a_at) / RFU EBF3 (11725865_a_at) / Fold change /veh EBF3 (11725865_a_at) / RFU CAMK2N1 (11719241_x_at) / Fold change /veh CAMK2N1 (11719241_x_at) / RFU C5orf56 (11738088_a_at) / Fold change /veh C5orf56 (11738088_a_at) / RFU OLFML3 (11715873_a_at) / Fold change /veh OLFML3 (11715873_a_at) / RFU LOC100653217 /// NTM (11731650_a_at) / Fold change /veh LOC100653217 /// NTM (11731650_a_at) / RFU MAPK11 (11762145_a_at) / Fold change /veh MAPK11 (11762145_a_at) / RFU FIZ1 (11724087_x_at) / Fold change /veh FIZ1 (11724087_x_at) / RFU OASL (11726364_x_at) / Fold change /veh OASL (11726364_x_at) / RFU SOX15 (11748057_x_at) / Fold change /veh SOX15 (11748057_x_at) / RFU CD79A (11719716_a_at) / Fold change /veh CD79A (11719716_a_at) / RFU HIST1H1D (11736915_at) / Fold change /veh HIST1H1D (11736915_at) / RFU CASKIN2 (11723855_a_at) / Fold change /veh CASKIN2 (11723855_a_at) / RFU LOC730098 (11760151_x_at) / Fold change /veh LOC730098 (11760151_x_at) / RFU OR4N2 (11742367_at) / Fold change /veh OR4N2 (11742367_at) / RFU PRRT2 (11749266_a_at) / Fold change /veh PRRT2 (11749266_a_at) / RFU SNX32 (11753110_a_at) / Fold change /veh SNX32 (11753110_a_at) / RFU CDHR5 (11726645_a_at) / Fold change /veh CDHR5 (11726645_a_at) / RFU RCAN1 (11760418_a_at) / Fold change /veh RCAN1 (11760418_a_at) / RFU FAM167A (11723789_a_at) / Fold change /veh FAM167A (11723789_a_at) / RFU FAM26E (11764081_at) / Fold change /veh FAM26E (11764081_at) / RFU ISYNA1 (11749810_s_at) / Fold change /veh ISYNA1 (11749810_s_at) / RFU ACY1 (11761880_at) / Fold change /veh ACY1 (11761880_at) / RFU 11764098_at / Fold change /veh 11764098_at / RFU SAMD14 (11745864_x_at) / Fold change /veh SAMD14 (11745864_x_at) / RFU NPB (11741838_a_at) / Fold change /veh NPB (11741838_a_at) / RFU TMPRSS6 (11731388_a_at) / Fold change /veh TMPRSS6 (11731388_a_at) / RFU KRTAP10-2 (11738614_at) / Fold change /veh KRTAP10-2 (11738614_at) / RFU ARHGAP8 /// PRR5-ARHGAP8 (11727945_x_at) / Fold change /veh ARHGAP8 /// PRR5-ARHGAP8 (11727945_x_at) / RFU KRTAP5-7 /// NADSYN1 (11734609_at) / Fold change /veh KRTAP5-7 /// NADSYN1 (11734609_at) / RFU RASL12 (11751679_a_at) / Fold change /veh RASL12 (11751679_a_at) / RFU CDKN2B (11736163_a_at) / Fold change /veh CDKN2B (11736163_a_at) / RFU PRF1 (11729649_at) / Fold change /veh PRF1 (11729649_at) / RFU, ZNF638 /// ZNF638-IT1 / Fold change vs veh, ZNF638 /// ZNF638-IT1 / RFU, PANK3 / Fold change vs veh, PANK3 / RFU, SH3YL1 / Fold change vs veh, SH3YL1 / RFU, ZEB2 / Fold change vs veh, ZEB2 / RFU, NRIP1 / Fold change vs veh, NRIP1 / RFU, PTTG1IP / Fold change vs veh, PTTG1IP / RFU, CAPN2 / Fold change vs veh, CAPN2 / RFU, MED14 / Fold change vs veh, MED14 / RFU, SNORA58 / Fold change vs veh, SNORA58 / RFU, C1orf63 / Fold change vs veh, C1orf63 / RFU, LRRFIP1 / Fold change vs veh, LRRFIP1 / RFU, NDUFAF7 / Fold change vs veh, NDUFAF7 / RFU, SLC12A2 / Fold change vs veh, SLC12A2 / RFU, IBTK / Fold change vs veh, IBTK / RFU, ESF1 / Fold change vs veh, ESF1 / Fold change vs veh, TMEM50B / RFU, TAOK1 / Fold change vs veh, TAOK1 / RFU, ACBD3 / Fold change vs veh, ACBD3 / RFU, TMA16 / Fold change vs veh, TMA16 / RFU, RWDD3 / Fold change vs veh, RWDD3 / RFU, BCAT1 / Fold change vs veh, BCAT1 / RFU, EDEM3 / Fold change vs veh, EDEM3 / RFU, TMEM33 / Fold change vs veh, TMEM33 / RFU, WDR75 / Fold change vs veh, WDR75 / RFU, AHCTF1 / Fold change vs veh, AHCTF1 / RFU, TFRC / Fold change vs veh, TFRC / RFU, ZDHHC17 / Fold change vs veh, ZDHHC17 / RFU, NOM1 / Fold change vs veh, NOM1 / RFU, ARL8B / Fold change vs veh, ARL8B / RFU, ZBTB11 / Fold change vs veh, ZBTB11 / RFU, TAMM41 / Fold change vs veh, TAMM41 / RFU, KIAA1704 /// LOC100996395 / Fold change vs veh, KIAA1704 /// LOC100996395 / RFU, ING1 / Fold change vs veh, ING1 / RFU, TRMT61B / Fold change vs veh, TRMT61B / RFU, FUBP3 / Fold change vs veh, FUBP3 / RFU, TP53 / Fold change vs veh, TP53 / RFU, TNKS2 / Fold change vs veh, TNKS2 / RFU, ZFP14 / Fold change vs veh, ZFP14 / RFU, ACTR2 / Fold change vs veh, ACTR2 / RFU, PPP3R1 / Fold change vs veh, PPP3R1 / RFU, PIK3R1 / Fold change vs veh, PIK3R1 / RFU, HNRNPA1 / Fold change vs veh, HNRNPA1 / RFU, RNF170 / Fold change vs veh, RNF170 / RFU, ZNF28 / Fold change vs veh, ZNF28 / RFU, RNGTT / Fold change vs veh, RNGTT / RFU, OGT / Fold change vs veh, OGT / RFU, BRD1 / Fold change vs veh, BRD1 / RFU, MARS / Fold change vs veh, MARS / RFU, ZNF655 / Fold change vs veh, ZNF655 / RFU, FAHD1 / Fold change vs veh, FAHD1 / RFU, BDP1 / Fold change vs veh, BDP1 / RFU, LRRCC1 / Fold change vs veh, LRRCC1 / RFU, ARID1A / Fold change vs veh, ARID1A / RFU, ZNF146 / Fold change vs veh, ZNF146 / RFU, ZNF330 / Fold change vs veh, ZNF330 / RFU, GPN3 / Fold change vs veh, GPN3 / RFU, C9orf123 / Fold change vs veh, C9orf123 / RFU, N4BP2L2 / Fold change vs veh, N4BP2L2 / RFU, ARFIP1 / Fold change vs veh, ARFIP1 / RFU, FAM179B / Fold change vs veh, FAM179B / RFU, BCL10 / Fold change vs veh, BCL10 / RFU, UHRF1BP1L / Fold change vs veh, UHRF1BP1L / RFU, BET1 / Fold change vs veh, BET1 / RFU, CNOT2 / Fold change vs veh, CNOT2 / RFU, ZNF268 / Fold change vs veh, ZNF268 / Fold change vs veh, ZNF507 / RFU, DGCR2 / Fold change vs veh, DGCR2 / RFU, WDSUB1 / Fold change vs veh, WDSUB1 / Fold change vs veh, HSP90B1 /// MIR3652 / RFU, ADSS / Fold change vs veh, ADSS / RFU, GK / Fold change vs veh, GK / RFU, ZNF148 / Fold change vs veh, ZNF148 / RFU, TAF9 / Fold change vs veh, TAF9 / RFU, SLC1A5 / Fold change vs veh, SLC1A5 / RFU, SLMO2 / Fold change vs veh, SLMO2 / RFU, ABCC4 / Fold change vs veh, ABCC4 / RFU, LOC101060439 /// RAP1B / Fold change vs veh, LOC101060439 /// RAP1B / RFU, RFX7 / Fold change vs veh, RFX7 / RFU, GTPBP10 / Fold change vs veh, GTPBP10 / RFU, CNEP1R1 / Fold change vs veh, CNEP1R1 / RFU, BIVM-ERCC5 /// ERCC5 / Fold change vs veh, BIVM-ERCC5 /// ERCC5 / RFU, ILF3 / Fold change vs veh, ILF3 / RFU 11762660_at / Fold change /veh 11762660_at / RFU VCAN (11757783_s_at) / Fold change /veh VCAN (11757783_s_at) / RFU DDX43 (11728927_at) / Fold change /veh DDX43 (11728927_at) / RFU KRT8 (11758188_x_at) / Fold change /veh KRT8 (11758188_x_at) / RFU NKD1 (11759106_at) / Fold change /veh NKD1 (11759106_at) / RFU SRD5A1 (11742802_a_at) / Fold change /veh SRD5A1 (11742802_a_at) / RFU TPSAB1 /// TPSB2 (11721975_s_at) / Fold change /veh TPSAB1 /// TPSB2 (11721975_s_at) / RFU GSTM3 (11746129_a_at) / Fold change /veh GSTM3 (11746129_a_at) / RFU IL23R (11737362_x_at) / Fold change /veh IL23R (11737362_x_at) / RFU TMEM51 (11727254_a_at) / Fold change /veh TMEM51 (11727254_a_at) / RFU PIWIL2 (11732686_x_at) / Fold change /veh PIWIL2 (11732686_x_at) / RFU ORM1 (11744905_x_at) / Fold change /veh ORM1 (11744905_x_at) / RFU CCDC152 (11743942_at) / Fold change /veh CCDC152 (11743942_at) / RFU ECM1 (11717891_a_at) / Fold change /veh ECM1 (11717891_a_at) / RFU IL23R (11748794_a_at) / Fold change /veh IL23R (11748794_a_at) / RFU TNFAIP8L3 (11732012_x_at) / Fold change /veh TNFAIP8L3 (11732012_x_at) / RFU MBOAT4 (11741988_at) / Fold change /veh MBOAT4 (11741988_at) / RFU 11764193_at / Fold change /veh 11764193_at / RFU TMEM53 (11763286_at) / Fold change /veh TMEM53 (11763286_at) / RFU MAGEB2 (11727129_at) / Fold change /veh MAGEB2 (11727129_at) / RFU TMEM200A (11744735_a_at) / Fold change /veh TMEM200A (11744735_a_at) / RFU CCDC152 (11751479_a_at) / Fold change /veh CCDC152 (11751479_a_at) / RFU FAM211A (11726209_a_at) / Fold change /veh FAM211A (11726209_a_at) / RFU RGS16 (11746705_a_at) / Fold change /veh RGS16 (11746705_a_at) / RFU VCAN (11755009_s_at) / Fold change /veh VCAN (11755009_s_at) / RFU RHOB (11743442_s_at) / Fold change /veh RHOB (11743442_s_at) / RFU RGS16 (11720943_a_at) / Fold change /veh RGS16 (11720943_a_at) / RFU RGS16 (11720944_at) / Fold change /veh RGS16 (11720944_at) / RFU, VPS4B / Fold change vs veh, VPS4B / RFU, CREB1 / Fold change vs veh, CREB1 / RFU, DNAJC13 / Fold change vs veh, DNAJC13 / RFU, GNAQ / Fold change vs veh, GNAQ / RFU, CDK5R1 / Fold change vs veh, CDK5R1 / RFU, ZRANB3 / Fold change vs veh, ZRANB3 / RFU, CUL4A / Fold change vs veh, CUL4A / RFU, CCNY / Fold change vs veh, CCNY / RFU, UFL1 / Fold change vs veh, UFL1 / RFU, COG3 / Fold change vs veh, COG3 / RFU, DIAPH2 / Fold change vs veh, DIAPH2 / RFU, SKA2 / Fold change vs veh, SKA2 / RFU, AFF3 / Fold change vs veh, AFF3 / RFU, LMF1 / Fold change vs veh, LMF1 / RFU, IPO11 / Fold change vs veh, IPO11 / RFU, DFFB / Fold change vs veh, DFFB / RFU, FOXP1 / Fold change vs veh, FOXP1 / RFU, CARD8 / Fold change vs veh, CARD8 / RFU, STRN3 / Fold change vs veh, STRN3 / RFU, ADK / Fold change vs veh, ADK / RFU, RASSF2 / Fold change vs veh, RASSF2 / RFU, WIPF1 / Fold change vs veh, WIPF1 / RFU, LARP1B / Fold change vs veh, LARP1B / RFU, RASA1 / Fold change vs veh, RASA1 / RFU, RB1 / Fold change vs veh, RB1 / RFU, PPFIA1 / Fold change vs veh, PPFIA1 / RFU, MAT2A / Fold change vs veh, MAT2A / RFU, CCT5 / Fold change vs veh, CCT5 / RFU, WDR92 / Fold change vs veh, WDR92 / RFU, CUX1 / Fold change vs veh, CUX1 / RFU, TTC7A / Fold change vs veh, TTC7A / RFU, TMEM135 / Fold change vs veh, TMEM135 / RFU, DEPTOR / Fold change vs veh, DEPTOR / RFU, CPM / Fold change vs veh, CPM / RFU, DNAJB6 / Fold change vs veh, DNAJB6 / RFU, CACNA2D3 / Fold change vs veh, CACNA2D3 / RFU, DTX4 / Fold change vs veh, DTX4 / RFU, TFCP2 / Fold change vs veh, TFCP2 / RFU, GMCL1 /// GMCL1P1 / Fold change vs veh, GMCL1 /// GMCL1P1 / RFU, AEBP2 / Fold change vs veh, AEBP2 / RFU, SNHG1 /// SNORD22 /// SNORD25 /// SNORD26 /// SNORD27 /// SNORD28 /// SNORD29 /// SNORD31 / Fold change vs veh, SNHG1 /// SNORD22 /// SNORD25 /// SNORD26 /// SNORD27 /// SNORD28 /// SNORD29 /// SNORD31 / Fold change (Aza/veh), C12orf56 (ProbeSet 11735607_a_at) / Fold change (ACY-1035/veh), C12orf56 (ProbeSet 11735607_a_at) / Fold change (Aza/veh), FGFR1OP (ProbeSet 11751329_s_at) / Fold change (ACY-1035/veh), FGFR1OP (ProbeSet 11751329_s_at) / Fold change (Aza/veh), VPS36 (ProbeSet 11739960_a_at) / Fold change (ACY-1035/veh), VPS36 (ProbeSet 11739960_a_at) / RFU SYPL1 (11715823_x_at) / Fold change /veh SYPL1 (11715823_x_at) / RFU IGFBP7 (11715501_s_at) / Fold change /veh IGFBP7 (11715501_s_at) / RFU REEP3 (11722064_at) / Fold change /veh REEP3 (11722064_at) / RFU IGLL1 (11728026_x_at) / Fold change /veh IGLL1 (11728026_x_at): dose or concentration left out as unconfirmed. The class given is cell-based, human. Conditions: MV-4-11 cells, 48 hours.

Turning to `Nc1ccc(-c2cccs2)cc1NC(=O)c1ccc2c(c1)cc(C1CC1)n2CCN1CCOCC1` [ACY-1035], the “Fold change /veh 11762660_at” value was 0.98.
